How the values were obtained:
[1] = biological target: T1, folate receptor (FR) on FR-positive KB cells (Homo sapiens, UniProt P15328); assay: Relative affinity assay (blocking of 3H-folic acid binding to KB cells); conditions: for IC50: 100 nM 3H-folic acid, KB cells, 15 min on ice, triplicate; for RA (relative affinity): inverse molar ratio to displace 50% of 3H-folic acid, folic acid set to 1
T1 construct: FR-positive KB cells were gently trypsinized; endogenous in cells; host or cells: KB cells
T1 sequence (P15328 25-234): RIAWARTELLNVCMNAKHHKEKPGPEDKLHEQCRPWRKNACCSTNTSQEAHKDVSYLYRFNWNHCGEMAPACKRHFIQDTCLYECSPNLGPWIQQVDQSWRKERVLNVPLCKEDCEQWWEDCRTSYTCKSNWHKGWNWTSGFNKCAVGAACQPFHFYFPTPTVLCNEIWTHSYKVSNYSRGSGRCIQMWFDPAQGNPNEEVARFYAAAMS
Protocol: The relative affinity of various folate derivatives was determined according to the method described by Westerhoff et al. (Mol. Pharm., 48: 459-471 (1995)) with slight modification. Briefly, FR-positive KB cells were gently trypsinized in 0.25% trypsin/PBS at room temperature for 3 minutes and then diluted in FFRPMI/HIFCS. Following a 5 min 800×g spin and one PBS wash, the final cell pellet was suspended in FFRPMI 1640 (no serum). […] Samples were centrifuged at 10,000×g for 5 min, cell pellets were suspended in buffer, were transferred to individual vials containing 5 mL of scintillation cocktail, and were then counted for radioactivity.
Likewise, values lower than unity reflect weaker affinity, and values higher than unity reflect stronger affinity.
Following a 15-minute incubation at 4° C., cells were rinsed free of unbound material and counted for residual cell-associated radioactivity.

[2] = biological target: T2, folate receptor (FR) on KB cells (Homo sapiens, UniProt P15328); assay: Concentration-dependent cell uptake (Scatchard analysis); assay type: binding; conditions: 2 hours at 37° C., read-out: KD of binding (Scatchard analysis)
T2 construct: FR-positive KB cells were gently trypsinized; endogenous in cells; host or cells: KB cells
T2 sequence (P15328 25-234): as above
Protocol: KB cells were seeded in 12-well Falcon plates and allowed to form sub-confluent monolayers overnight. Following one rinse with 1 mL of fresh FERPMI/HIFCS, each well received 1 mL of FFRPMI/HIFCS containing increasing concentrations of ^99mTc-EC20. Cells were incubated for 2 hours at 37° C. and then rinsed four times with 1 mL of ice-cold PBS, pH 7.4. The monolayers were dissolved in 0.5 mL of PBS, pH 7.4 containing 1% sodium dodecyl sulfate for 15 min at room temperature and then counted for radioactivity using a Packard gamma counter. Protein content was determined as described above, and final tabulated values were expressed in terms of molecules of EC20 per cell.
The particular KB cells used were determined to bind a maximum of four million molecules of the folate radiopharmaceutical per cell.
This HPLC-purified radiolabeled material (Peak B material) was collected and then added to cultured KB cells.

FR-positive KB tumors [3] = assay: Tissue distribution, KB tumor model (Example 16, Table 5); assay type: in vivo, nude mice; conditions: about 20-fold excess of free folate
Protocol: The protocols used in this example are similar to those described in Example 11. The ability of ^99mTc-EC11 (peptide-A1), ^99mTc-EC13 (peptide-A3), and ^99mTc-EC14 (peptide-A2) to target tumors in vivo was assessed using the FR-positive KB tumor model.
(§1) FR-positive KB tumor cells (0.25×10^6 per animal) were inoculated subcutaneously in the intracapsular region. Fourteen days after tumor cell inoculation, the animals (n=4/group) were injected intravenously with ^99mTc-EC11, ^99mTc-EC13, or ^99mTc-EC14 at the doses (about 12 μg/kg) of the conjugates shown in Table 5 below. Stocks of ^99mTc-EC11, ^99mTc-EC13, and ^99mTc-EC14 solutions were prepared on the day of use as described above. About a 20-fold excess of free folate (about 200 μg/kg) was co-administered to control animals (n=4/group). […] Selected tissues were removed, weighed, and counted in an automatic gamma counter to determine ^99mTc distribution. Uptake of the radiopharmaceutical in terms of percentage injected dose of wet weight tissue (% ID/g) was calculated by reference to standards prepared from dilutions of the injected preparation.

FR-positive M109 tumors = assay: Tissue distribution, subcutaneous M109 tumors (Example 11)
Protocol: The ability of ^99mTc-EC20 to target tumors in vivo was assessed using a FR-positive M109 model.
Four to five week-old mice (Balb/c strain) were purchased from Harlan Sprague Dawley, Inc. (Indianapolis, Ind.) and were maintained on a folate-free diet for a total of three weeks prior to the experiment. Syngeneic, FR-positive M109 tumor cells (1×10^6 per animal) were inoculated in the subcutis of the right axilla two weeks prior to the experiment.
Animals received an approximate 40 μmol/kg i.v. dose of test article in 100 μL volume via a lateral tail vein during brief diethyl ether anesthesia. Four hours post-injection, animals were sacrificed by CO2 asphyxiation, and dissected. Selected tissues were removed, weighed, and counted to determine ^99mTc distribution. CPM values were decay-corrected, and results were tabulated as % injected dose per gram of wet weight tissue.

FR-positive KB tumors [4] = assay: Tissue distribution of 99mTc-EC53, KB tumors (Table 6); assay type: in vivo
Protocol: as §1
Similar results (see Table 6 below) were obtained with ^99mTc-EC53 (the all D-enantiomer of EC20) using similar protocols except that the dose of ^99mTc-EC53 was about 50 μg/kg and about a 100-fold excess of free folate or cold EC53 was used. […] The accumulation was blocked by co-administration of free folate.

KB tumor = conditions: reported previously; cited from earlier work
[5] = 4 hr post i.v., + Folic acid (100 equivalents)
[6] = 4 hr post intravenous injection

For `Nc1nc2ncc(CNc3ccc(C(=O)N[C@H](CCC(=O)NC[C@@H]4[NH2+][Re-]56(=[O])[S]C[C@@H](C(=O)O)[N]5C(=O)[C@H](CC(=O)O)[N]6C4=O)C(=O)O)cc3)nc2c(=O)[nH]1` (single isomer, unassigned; isomer 1) [EC20:Re isomer 1], the IC50 [1] was 0.083 µM, the “RA (relative affinity)” value [1] was 1.42 and the “RA (relative affinity)” value ([1]; listed as Re-EC20 isomer A) was 1.42.
In the case of `Nc1nc2ncc(CNc3ccc(C(=O)N[C@H](CCC(=O)NC[C@@H]4[NH2+][Re-]56(=[O])[S]C[C@@H](C(=O)O)[N]5C(=O)[C@H](CC(=O)O)[N]6C4=O)C(=O)O)cc3)nc2c(=O)[nH]1` (single isomer, unassigned; isomer 2) [EC20:Re isomer 2], the IC50 [1] is reported as 0.086 µM, the “RA (relative affinity)” value [1] is reported as 1.37 and the “RA (relative affinity)” value ([1]; listed as Re-EC20 isomer B) is reported as 1.37.
For `Nc1nc2ncc(CNc3ccc(C(=O)NC(CCC(=O)NCC(N)C(=O)NC(CC(=O)O)C(=O)NC(CS)C(=O)O)C(=O)O)cc3)nc2c(=O)[nH]1` (stereo not shown) [EC20], the Kd [2] was ~0.003 µM, the IC50 [1] was 0.128 µM and the “RA (relative affinity)” value [1] was 0.92.
For `Nc1nc2ncc(CNc3ccc(C(=O)N[C@@H](CCC(=O)N[C@H](CCC(=O)NC[C@@H]4[NH2+][99Tc-]56(=[O])[S]C[C@@H](C(=O)O)[N]5C(=O)[C@H](CC(=O)O)[N]6C4=O)C(=O)O)C(=O)O)cc3)nc2c(=O)[nH]1` [^99mTc-EC14], the “accumulation in FR-positive KB tumors and kidneys on co-administration of free folate” value (FR-positive KB tumors [3]) was “blocked”, the Blood (FR-positive M109 tumors; [5]) was 0.19 ± 0.07 % Injected Dose per Gram Tissue and the Heart (FR-positive M109 tumors; [5]) was 0.08 ± 0.01 % Injected Dose per Gram Tissue. The Intestine (FR-positive M109 tumors; [5]) was 0.32 ± 0.11 % Injected Dose per Gram Tissue, the Kidney (FR-positive M109 tumors; [5]) was 5.94 ± 0.52 % Injected Dose per Gram Tissue and the Liver (FR-positive M109 tumors; [5]) was 1.37 ± 0.98 % Injected Dose per Gram Tissue. The Lung (FR-positive M109 tumors; [5]) was 0.15 ± 0.04 % Injected Dose per Gram Tissue, the Muscle (FR-positive M109 tumors; [5]) was 0.09 ± 0.11 % Injected Dose per Gram Tissue and the Spleen (FR-positive M109 tumors; [5]) was 2.99 ± 1.43 % Injected Dose per Gram Tissue. For the same molecule, the Stomach (FR-positive M109 tumors; [5]) was 0.10 ± 0.03 % Injected Dose per Gram Tissue, the Tumor (FR-positive M109 tumors; [5]) was 0.43 ± 0.52 % Injected Dose per Gram Tissue and the Tumor/Blood (FR-positive M109 tumors; [5]) was 2.00 ± 2.00. For the same molecule, the Blood (FR-positive M109 tumors; [6]) was 0.31 ± 0.14 % Injected Dose per Gram Tissue, the Heart (FR-positive M109 tumors; [6]) was 2.39 ± 0.64 % Injected Dose per Gram Tissue and the Intestine (FR-positive M109 tumors; [6]) was 1.70 ± 0.55 % Injected Dose per Gram Tissue. For the same molecule, the Kidney (FR-positive M109 tumors; [6]) was 98.0 ± 40.7 % Injected Dose per Gram Tissue, the Liver (FR-positive M109 tumors; [6]) was 3.44 ± 2.19 % Injected Dose per Gram Tissue and the Lung (FR-positive M109 tumors; [6]) was 2.08 ± 0.40 % Injected Dose per Gram Tissue. The Muscle (FR-positive M109 tumors; [6]) was 0.99 ± 0.28 % Injected Dose per Gram Tissue, the Spleen (FR-positive M109 tumors; [6]) was 2.68 ± 2.49 % Injected Dose per Gram Tissue and the Stomach (FR-positive M109 tumors; [6]) was 1.47 ± 0.58 % Injected Dose per Gram Tissue. It also gave a Tumor/Blood (FR-positive M109 tumors; [6]) of 34.1 ± 7.41.
For `Nc1nc2ncc(CNc3ccc(C(=O)N[C@H](CCC(=O)NC[C@H]4[NH2+][99Tc-]56(=[O])[S]C[C@H](C(=O)O)[N]5C(=O)[C@@H](CC(=O)O)[N]6C4=O)C(=O)O)cc3)nc2c(=O)[nH]1` [^99mTc-EC53], the “Tumor/Blood, Average” value (FR-positive KB tumors [4]; 99mTc-EC53 alone) was 31.4, the “Tumor/Kidney, Average” value (FR-positive KB tumors [4]; 99mTc-EC53 alone) was 0.2 and the “Tumor/Liver, Average” value (FR-positive KB tumors [4]; 99mTc-EC53 alone) was 3.4. For the same molecule, the “Tumor/Muscle, Average” value (FR-positive KB tumors [4]; 99mTc-EC53 alone) was 17.1, the “Tumor, Average” value (FR-positive KB tumors [4]; 99mTc-EC53 alone, 50.0 ug/kg) was 11.77 % ID/g and the “blood, Average” value (FR-positive KB tumors [4]; 99mTc-EC53 alone, 50.0 ug/kg) was 0.38 % ID/g. For the same molecule, the “heart, Average” value (FR-positive KB tumors [4]; 99mTc-EC53 alone, 50.0 ug/kg) was 1.09 % ID/g, the “intestine, Average” value (FR-positive KB tumors [4]; 99mTc-EC53 alone, 50.0 ug/kg) was 3.53 % ID/g and the “kidney, Average” value (FR-positive KB tumors [4]; 99mTc-EC53 alone, 50.0 ug/kg) was 77.99 % ID/g. The “liver, Average” value (FR-positive KB tumors [4]; 99mTc-EC53 alone, 50.0 ug/kg) was 3.86 % ID/g, the “lung, Average” value (FR-positive KB tumors [4]; 99mTc-EC53 alone, 50.0 ug/kg) was 0.89 % ID/g and the “muscle, Average” value (FR-positive KB tumors [4]; 99mTc-EC53 alone, 50.0 ug/kg) was 0.76 % ID/g. For the same molecule, the “spleen, Average” value (FR-positive KB tumors [4]; 99mTc-EC53 alone, 50.0 ug/kg) was 0.67 % ID/g, the “stomach, Average” value (FR-positive KB tumors [4]; 99mTc-EC53 alone, 50.0 ug/kg) was 1.04 % ID/g and the “accumulation in FR-positive KB tumors and kidneys on co-administration of free folate” value (FR-positive KB tumors [4]; about a 100-fold excess of free folate) was “blocked”. The “Tumor/Blood, Average” value (FR-positive KB tumors [4]; plus EC53 (cold)) was 4.5, the “Tumor/Kidney, Average” value (FR-positive KB tumors [4]; plus EC53 (cold)) was 0.14 and the “Tumor/Liver, Average” value (FR-positive KB tumors [4]; plus EC53 (cold)) was 0.3. The “Tumor/Muscle, Average” value (FR-positive KB tumors [4]; plus EC53 (cold)) was 8.5, the “Tumor/Blood, Average” value (FR-positive KB tumors [4]; plus Folic Acid) was 2.2 and the “Tumor/Kidney, Average” value (FR-positive KB tumors [4]; plus Folic Acid) was 0.07. For the same molecule, the “Tumor/Liver, Average” value (FR-positive KB tumors [4]; plus Folic Acid) was 0.1 and the “Tumor/Muscle, Average” value (FR-positive KB tumors [4]; plus Folic Acid) was 5.2.
For “^99mTc-12-amino-3,3,9,9-tetramethyl-5-oxa-4,8 diaza-2,10-dodecanedinoe dioxime (OXA) folate conjugate”, the “tracer uptake in a KB tumor” value (KB tumor) is listed as ~7 % ID/g.
